# Columns and labels:
# canaux calciques = settings: see Spanish patent n°531.033; cited from earlier work
# radicaux libres = experiment: Free radical scavenger activity (test not specified)
# [1] = system: membrane hépatique du rat; experiment: Free radical scavenging in rat liver membranes: lipid peroxidation induced by Fe++/ascorbic acid, thiobarbituric acid-reactive substances; assay type: biochemical; settings: 45 minutes at 37°C, substances reacting with ATB, read-out: CI50 (the source's name)
# Procedure: Les composés de la présente invention ont fait l'objet d'un essai de contrôle de leur aptitude à capter les radicaux libres engendrés par la membrane hépatique du rat stimulée par du Fe++/acide ascorbique (système connu pour induire une formation de radicaux libres).
# 1.- Activité de captage des radicaux libres dans la membrane hépatique du rat.
# On a préparé des homogènats de foie de rat (1/10 p/v) dans du Ringer-Tris (50mM)-saccharose ([…]) de pH 7,4, après sacrifice de rats Wistar au moyen de CO2. On a découpé les foies en petits morceaux (1 à 2 mm) et on les a homogénéisés à 0°C dans un homogénéisateur Polytron. On a centrifugé les homogénats à 1000 x g pendant 10 minutes à 4°C et rejeté le culot. On a centrifugé le surnageant à 10 000 x g pendant 20 minutes et recueilli le culot, puis on l'a remis en suspension, dans le rapport 1/10, dans du Ringer-Tris (50 mM). On a utilisé des échantillons de la préparation immédiatement et on en a conservé à -20°C. […] Après 45 minutes à 37°C, on a ajouté 1 ml d'une solution contenant 0,5% d'acide thiobarbiturique (ATB) dans de l'acide trichloroacétique (ATC) à 20% dans chaque tube et après 15 minutes d'incubation à 95°C, on a déterminé par spectrophotométrie les substances réagissant avec l' A TB. On a réalisé pour toutes les expériences des témoins appropriés exempts du médicament.
# neutrophiles humains = experiment: Free radical production by FMLPA-stimulated human neutrophils (cytochrome C reduction); assay type: cell-based; settings: Neutrophil, reduced cytochrome C at 550 nm, read-out: CI50 (the source's name)
# Source text: (§1) Les composés de la présente invention ont fait l'objet d'un essai de contrôle de leur aptitude à capter les radicaux libres engendrés par la membrane hépatique du rat stimulée par du Fe++/acide ascorbique (système connu pour induire une formation de radicaux libres). Les composés les plus actifs ont fait ensuite l'objet d'essais de contrôle de leur aptitude à inhiber la formation des radicaux libres par les neutrophiles humains stimulés par la N-formyl-L-méthionyl-L-leucyl-L-phénylalanine et à protéger le tissu hépatique, entretenu en culture, contre les lésions par ischémie/reperfusion.
# 2.- Dosage des radicaux libres dans les polymorphonucléaires.
# On a isolé des neutrophiles humains chez des donneurs volontaires bien portants par centrifugation sur gradient dans du Ficol Hypaque (Pharmacia). On a mélangé 100 µl de suspension de cellules (nombre final 500 000 cellules) avec 700 µl de solution physiologique tamponnée au phosphate et 50 µl des composés expérimentaux en solution dans du DMSO. On a utilisé comme témoin positif 25 µl d'une solution à 1 mg par ml de superoxyde dismutase dans du DMSO (à savoir 25 µg de SOD). On a préincubé les tubes à 37°C pendant 10 minutes sous agitation lente.
# On a stimulé les neutrophiles par addition de 100 µl de cytochrome C type VI (1 mM) (Sigma) dans de la solution physiologique tamponnée au phosphate, de 50 µl de N-formyl-L-méthionyl-L-leucyl-L-phénylalanine (FMPLA) (10 µM) (Sigma F 3506) et par incubation pendant 5 minutes à 37°C. Après refroidissement à 0°C pour arrêter la réaction, on a centrifugé les tubes à 8000 xg et on a déterminé par spectrophotométrie à 550 nm le cytochrome C réduit, en utilisant des tubes contenant du SOD comme témoins.
# tissu hépatique = experiment: Ischemia/reperfusion in short-term organ culture of rat liver, malonaldehyde by thiobarbituric acid reaction; assay type: cell-based, rats Wistar; settings: 1 h, concentration inhibiting malonaldehyde production by 50%, 60 minutes ischemic anoxia, 60 minutes reoxygenation, read-out: CI50 (the source's name)
# Source text: as §1
# 3.- Ischémie/reperfusion dans une culture d'organe à court terme.
# Pour ces études, on a prélevé des échantillons de tissu dans des groupes de 10 rats Wistar mâles anesthésiés au pentobarbital sodique (60 mg par kg, i.p.). On a isolé les foies et on les a divisés en cinq échantillons d'environ 0,4 g qu'on a pesés et transférés dans des fioles d'Erlenmeyer de 50 ml bouchées contenant de la solution de Tris-Ringer saturée d'argon (anoxique).
# On a purgé à l'argon les fioles d'Erlenmeyer de 50 ml contenant les échantillons du tissu et 3,9 ml de tampon de Tris-Ringer traité à l'argon, on les a rebouchées et on les a conservées au bain-marie à 37°C sans agitation pendant 50 minutes pour provoquer l'ischémie. La subdivision du tissu et l'agitation ont été évitées à ce stade pour réduire au minimum la diffusion des métabolites depuis le tissu jusque dans le milieu, qui n'aurait pu se faire au cours d'une ischémie in vivo.
# Division du tissu et addition du médicament.
# Après 50 minutes d'ischémie, on a divisé les tissus avec des ciseaux d'ophtalmologie en fragments d'environ 1 mm de côté. Du fait que l'argon est plus dense que l'air, son déplacement hors de la fiole et son remplacement par l'oxygène sont restés minimaux pendant le découpage et l'addition ultérieure du médicament. Ensuite, on a ajouté 0,1 ml de tampon de Tris-Ringer contenant l'un des composés à évaluer ou de l'hydroxy- toluène butylé (HTB), pour arriver à la concentration finale souhaitée; on a sélectionné l'hydroxytoluène butylé du fait que c'est un antioxydant classique qui gêne la propagation en chaîne des radicaux. On a procédé à ces additions avec rapidité pour éviter d'introduire de l'oxygène. On a rebouché les fioles et on les a secouées modérément pour mélanger le tissu avec le médicament, puis on les a remises au bain-marie pendant 10 minutes pour la mise a l'équilibre avant la réoxygénation.
# Après 60 minutes d'anoxie ischémique, on a réoxygéné les fioles par barbotage vif d'oxygène gazeux à 100% dans les échantillons pendant 1 minute et par purge de la phase gazeuse avec de l'oxygène (de l'argon remplaçant l'oxygène à ce stade dans les expériences témoins d'ischémie sans réoxygénation). […]
smiles,measurement,setting,value
CCOC(=O)C1=C(C)NC(C)=C(C(=O)OC)C1c1cc(OC)c(O)c(OC)c1 (centres unmarked),activité de blocage des canaux calciques,canaux calciques,pratiquement exempt
same,activité comme capteur de radicaux libres,radicaux libres,intéressante activité
"CCOC(=O)C1=C(C)NC(C)=C(C(=O)OC)C1c1cc(C(C)(C)C)c(O)c(C(C)(C)C)c1 (centres unmarked) [Exemple 1, 2,6-Diméthyl-4-(4'-hydroxy-3',5'-di-t-butylphényl)-1,4-dihydropyridine-3,5-dicarboxylatede méthyle et d'éthyle]",IC50,[1],780 nM
same,IC50,neutrophiles humains,10900 nM
same,IC50,tissu hépatique,170 nM
"CCOC(=O)C1=C(C)NC(C)=C(C(=O)OC(C)C)C1c1cc(C(C)(C)C)c(O)c(C(C)(C)C)c1 (centres unmarked) [Exemple 2, 2,6-diméthyl-4-(4'-hydroxy-3',5'-di-t-butylphényl)-1,4-dihydropyridine-3,5-dicarboxylate d'éthyle et d'isopropyle]",IC50,[1],290 nM
same,IC50,neutrophiles humains,10200 nM
same,IC50,tissu hépatique,200 nM
"COC(=O)C1=C(C)NC(C)=C(C(=O)OC)C1c1cc(C(C)(C)C)c(O)c(C(C)(C)C)c1 [Exemple 3, 2,6-Diméthyl-4-(4'-hydroxy-3',5'-di-t-butylphényl)-1,4-dihydropyridine-3,5-dicarboxylatede diméthyle]",IC50,[1],1250 nM
"CCOC(=O)C1=C(C)NC(C)=C(C(=O)OCC2COC(C)(C)O2)C1c1cc(C(C)(C)C)c(O)c(C(C)(C)C)c1 (centres unmarked) [Exemple 4, 2,6-diméthyl-4-(4'-hydroxy-3',5'-di-t-butylphényl)-1,4-dihydropyridine-3,5-dicarboxylate d'éthyle etde (2,2-diméthyl-1,3-dioxolan-4-yl)méthyle]",IC50,[1],1250 nM
"CCOC(=O)C1=C(C)NC(C)=C(C(=O)OCC(O)CO)C1c1cc(C(C)(C)C)c(O)c(C(C)(C)C)c1 (centres unmarked) [Exemple 5, 2,6-diméthyl-4-(4'-hydroxy-3',5'-di-t-butyl-phényl)-1,4-dihydropyridine-3,5-dicarboxylate d'éthyle etde 2,3-dihydroxypropyle]",IC50,[1],50000 nM
"CCOC(=O)C1=C(C)NC(C)=C(C(=O)OCCN(C)Cc2ccccc2)C1c1cc(C(C)(C)C)c(O)c(C(C)(C)C)c1 (centres unmarked) [Exemple 6, chlorhydratede 2,6-diméthyl-4-(4'-hydroxy-3',5'-di-t-butylphényl)-1,4-dihydropyridine-3,5-dicarboxylate d'éthyle etde 2-(N-méthyl-N-benzylamino)éthyle]",IC50,[1],20000 nM
"CCOC(=O)C1=C(C)NC(C)=C(C(=O)OCCNC)C1c1cc(C(C)(C)C)c(O)c(C(C)(C)C)c1 (centres unmarked) [Exemple 7, chlorhydratede 2,6-diméthyl-4-(4'-hydroxy-3',5'-di-t-butylphényl)-1,4-dihydropyridine-3,5-dicarboxylate d'éthyle etde 2-(méthylamino)éthyle]",IC50,[1],2500 nM
"CCOC(=O)C1=C(C)NC(C)=C(C(=O)OCc2ccccc2)C1c1cc(C(C)(C)C)c(O)c(C(C)(C)C)c1 (centres unmarked) [Exemple 8, 2,6-diméthyl-4-(4'-hydroxy-3',5'-di-t-butylphényl)-1,4-dihydropyridine-3,5-dicarboxylate d'éthyle etde benzyle]",IC50,[1],1000 nM
"CCOC(=O)C1=C(C)NC(C)=C(C(=O)O)C1c1cc(C(C)(C)C)c(O)c(C(C)(C)C)c1 (centres unmarked) [Exemple 9, 2,6-diméthyl-4-(4'-hydroxy-3',5'-di-t-butylphényl)-5-carbéthoxy-3-carboxy-1,4-dihydropyridine]",IC50,[1],2500 nM
"CCOC(=O)C1=C(C)NC(C)=C(C(=O)OCC(C)C)C1c1cc(C(C)(C)C)c(O)c(C(C)(C)C)c1 (centres unmarked) [Exemple 10, 2,6-diméthyl-4-(4'-hydroxy-3',5'-di-t-butylphényl)-1,4-dihydropyridine-3,5-dicarboxylate d'éthyle et d'isobutyle]",IC50,[1],370 nM
same,IC50,neutrophiles humains,10500 nM
same,IC50,tissu hépatique,200 nM
"CC1=C(C(=O)OCC(C)C)C(c2cc(C(C)(C)C)c(O)c(C(C)(C)C)c2)C(C(=O)OCC(C)C)=C(C)N1 [Exemple 11, 2,6-diméthyl-4-(4'-hydroxy-3',5'-di-t-butylphényl)-1,4-dihydropyridine-3,5-dicarboxylatede diisobutyle]",IC50,[1],1000 nM
"Cc1cc(C(C)(C)C)c(O)c(C(C)(C)C)c1 [HTB, hydroxytoluène butylé, reference compound]",IC50,[1],1500 nM
same,IC50,neutrophiles humains,20000 nM
same,IC50,tissu hépatique,1750 nM
"Cc1c(C)c2c(c(C)c1O)CCC(C)(CCCC(C)CCCC(C)CCCC(C)C)O2 (stereo not drawn) [α-Tocophérol, reference compound]",IC50,[1],15000 nM
